From ChEMBL document CHEMBL1201862, “PubChem BioAssay data set” (2004)
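Growth conditions: 96-well plates. Treatment: test compound, 48 hours, 5 concentrations. Analysis: linear interpolation between bracketing concentrations; unreached endpoints set to highest concentration. At the GI50, growth is halved.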 The source made the active and inactive calls. No stated cut-off is given here; in the data, active = GI50 up to about 1.1 µM and inactive = higher.

How the values were obtained:
Assay in all cases: growth of human tumour cells (NCI), 48 h
SK-MEL-28 = tested on: SK-MEL-28
SW-620 = tested on: SW-620
HOP-62 = tested on: HOP-62
SF-295 = tested on: SF-295
HCC 2998 = tested on: HCC 2998
MDA-MB-435 = tested on: MDA-MB-435
NCI-H226 = tested on: NCI-H226
HL-60 = tested on: HL-60
SF-268 = tested on: SF-268
SNB-19 = tested on: SNB-19
ACHN = tested on: ACHN
HCT-116 = tested on: HCT-116
PC-3 = tested on: PC-3
U-251 = tested on: U-251
IGROV-1 = tested on: IGROV-1
CCRF-CEM = tested on: CCRF-CEM
MOLT-4 = tested on: MOLT-4
SN12C = tested on: SN12C
SF-539 = tested on: SF-539
COLO 205 = tested on: COLO 205
SK-MEL-5 = tested on: SK-MEL-5
UACC-62 = tested on: UACC-62
OVCAR-4 = tested on: OVCAR-4
EKVX = tested on: EKVX
LOX IMVI = tested on: LOX IMVI
A498 = tested on: A498
RXF 393 = tested on: RXF 393
MDA-N = tested on: MDA-N
OVCAR-5 = tested on: OVCAR-5
SNB-75 = tested on: SNB-75
RPMI-8226 = tested on: RPMI-8226
T47D = tested on: T47D
Malme-3M = tested on: Malme-3M
NCI/ADR-RES = tested on: NCI/ADR-RES
HCT-15 = tested on: HCT-15
MDA-MB-231 = tested on: MDA-MB-231
KM12 = tested on: KM12
TK-10 = tested on: TK-10
CAKI-1 = tested on: CAKI-1
OVCAR-8 = tested on: OVCAR-8
OVCAR-3 = tested on: OVCAR-3
K562 = tested on: K562
MCF7 = tested on: MCF7
786-0 = tested on: 786-0
NCI-H460 = tested on: NCI-H460
BT-549 = tested on: BT-549
UACC-257 = tested on: UACC-257
M14 = tested on: M14
Hs-578T = tested on: Hs-578T
A549 = tested on: A549
UO-31 = tested on: UO-31
NCI-H23 = tested on: NCI-H23
DU-145 = tested on: DU-145
HT-29 = tested on: HT-29
SK-OV-3 = tested on: SK-OV-3

Measured: GI50

COC(=O)C(=O)CC(=O)c1cccc(OC)c1
> 100 µM: HCT-15
inactive: SK-MEL-28 > 100 µM | SW-620 > 100 µM | HOP-62 > 100 µM | SF-295 > 100 µM | HCC 2998 > 100 µM | MDA-MB-435 > 100 µM | NCI-H226 > 100 µM | HL-60 > 100 µM | SF-268 > 100 µM | SNB-19 > 100 µM | ACHN > 100 µM | HCT-116 > 100 µM | PC-3 > 100 µM | U-251 > 100 µM | CCRF-CEM > 100 µM | MOLT-4 > 100 µM | SN12C > 100 µM | SF-539 > 100 µM | COLO 205 > 100 µM | SK-MEL-5 > 100 µM | UACC-62 > 100 µM | OVCAR-4 > 100 µM | EKVX > 100 µM | LOX IMVI > 100 µM | A498 > 100 µM | RXF 393 > 100 µM | MDA-N 5.66 µM | OVCAR-5 > 100 µM | SNB-75 > 100 µM | RPMI-8226 > 100 µM | T47D > 100 µM | Malme-3M > 100 µM | NCI/ADR-RES > 100 µM | MDA-MB-231 > 100 µM | KM12 > 100 µM | TK-10 78.3 µM | CAKI-1 > 100 µM | OVCAR-8 > 100 µM | OVCAR-3 > 100 µM | K562 > 100 µM | MCF7 > 100 µM | 786-0 > 100 µM | NCI-H460 > 100 µM | BT-549 > 100 µM | UACC-257 > 100 µM | M14 > 100 µM | Hs-578T > 100 µM | A549 > 100 µM | UO-31 > 100 µM | NCI-H23 > 100 µM | DU-145 > 100 µM | HT-29 > 100 µM | SK-OV-3 > 100 µM
active: IGROV-1 < 0.01 µM
